Holding throughout (assay type): cell-based
One test concerns the target T1, Human Nav1.5 (Homo sapiens, UniProt Q14524).
T1 construct: expressed in transfected cells; host or cells: HEK293
Description: Nav1.5 Assay (VIPR, HEK293 cells). The note with it: HEK293 cells expressing Human Nav1.5; average of replicates; read-out: Nav1.5 IC50. On the procedure:
The Nav1.5 assay is performed in HEK293 cells expressing Human Nav1.5 in the same way as the Nav1.8 assay.
Where replicate experiments were conducted resulting in multiple sets of data for a test compound, the data presented represent the average value from all replicate experiments.

The subject of test [1] is tetrodotoxin-sensitive voltage-gated sodium channels including NaV1.2, NaV1.3 and NaV1.7. The test is described as follows: TTX-S Assay (VIPR, SHSY-5Y cell line, veratridine opener). The settings on record: read-out: TTX-S IC50, veratridine 50 μM opener, average of replicates.
The next test deals with T2, Human Nav1.8 (Homo sapiens, UniProt Q9Y5Y9).
T2 construct: expressed in transfected cells; host or cells: HEK293
T2 sequence (Q9Y5Y9 whole entry): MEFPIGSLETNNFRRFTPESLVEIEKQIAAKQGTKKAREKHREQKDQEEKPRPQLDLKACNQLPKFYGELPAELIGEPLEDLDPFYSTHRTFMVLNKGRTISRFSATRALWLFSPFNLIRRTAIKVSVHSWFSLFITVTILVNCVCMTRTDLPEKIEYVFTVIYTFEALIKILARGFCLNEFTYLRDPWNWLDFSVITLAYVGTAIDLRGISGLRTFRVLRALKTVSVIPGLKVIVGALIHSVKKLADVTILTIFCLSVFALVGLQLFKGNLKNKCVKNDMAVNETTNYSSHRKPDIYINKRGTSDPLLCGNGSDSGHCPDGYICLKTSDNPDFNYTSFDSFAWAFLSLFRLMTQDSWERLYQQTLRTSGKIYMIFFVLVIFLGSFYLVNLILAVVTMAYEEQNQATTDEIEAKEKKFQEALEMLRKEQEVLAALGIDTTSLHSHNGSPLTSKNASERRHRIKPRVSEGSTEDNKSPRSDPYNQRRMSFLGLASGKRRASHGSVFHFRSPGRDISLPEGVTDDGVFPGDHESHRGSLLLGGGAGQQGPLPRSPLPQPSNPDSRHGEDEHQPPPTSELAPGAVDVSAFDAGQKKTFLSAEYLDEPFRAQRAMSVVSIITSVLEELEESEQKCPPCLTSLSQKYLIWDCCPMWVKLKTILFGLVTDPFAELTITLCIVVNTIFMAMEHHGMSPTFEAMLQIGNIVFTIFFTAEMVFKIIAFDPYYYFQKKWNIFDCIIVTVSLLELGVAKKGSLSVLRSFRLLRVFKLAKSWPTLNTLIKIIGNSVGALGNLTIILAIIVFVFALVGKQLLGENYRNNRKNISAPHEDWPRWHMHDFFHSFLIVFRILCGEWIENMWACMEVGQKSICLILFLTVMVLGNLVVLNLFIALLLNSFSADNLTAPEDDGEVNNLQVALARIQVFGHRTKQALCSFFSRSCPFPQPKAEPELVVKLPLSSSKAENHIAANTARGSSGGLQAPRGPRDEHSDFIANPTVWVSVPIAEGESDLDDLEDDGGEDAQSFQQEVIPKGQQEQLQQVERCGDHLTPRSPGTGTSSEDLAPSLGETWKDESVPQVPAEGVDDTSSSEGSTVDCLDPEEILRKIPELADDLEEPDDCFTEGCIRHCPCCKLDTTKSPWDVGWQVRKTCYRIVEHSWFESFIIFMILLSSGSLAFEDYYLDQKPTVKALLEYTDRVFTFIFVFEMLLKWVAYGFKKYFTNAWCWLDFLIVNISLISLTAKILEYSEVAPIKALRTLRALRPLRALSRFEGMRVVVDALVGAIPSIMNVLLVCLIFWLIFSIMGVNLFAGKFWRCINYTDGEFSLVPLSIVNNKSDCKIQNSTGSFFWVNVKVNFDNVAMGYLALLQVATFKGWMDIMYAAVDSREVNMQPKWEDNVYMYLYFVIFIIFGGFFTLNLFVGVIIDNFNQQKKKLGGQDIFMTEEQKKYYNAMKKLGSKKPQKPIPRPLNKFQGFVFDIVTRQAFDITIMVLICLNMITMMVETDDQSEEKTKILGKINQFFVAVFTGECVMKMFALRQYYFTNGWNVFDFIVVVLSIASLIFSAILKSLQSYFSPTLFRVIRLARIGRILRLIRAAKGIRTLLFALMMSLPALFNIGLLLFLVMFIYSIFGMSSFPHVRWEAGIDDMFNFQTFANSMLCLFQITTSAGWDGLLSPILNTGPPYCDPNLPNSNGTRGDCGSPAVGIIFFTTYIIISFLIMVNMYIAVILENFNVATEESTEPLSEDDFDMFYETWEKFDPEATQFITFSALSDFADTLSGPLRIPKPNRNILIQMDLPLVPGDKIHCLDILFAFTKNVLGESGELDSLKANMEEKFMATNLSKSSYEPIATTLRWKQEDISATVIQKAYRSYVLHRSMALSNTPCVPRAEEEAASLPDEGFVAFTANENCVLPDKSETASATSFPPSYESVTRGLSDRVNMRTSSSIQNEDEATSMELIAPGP
Description: VIPR Assay for Nav1.8 Compounds (FRET membrane potential, deltamethrin opener). The note with it: VIPR FRET membrane potential assay, deltamethrin opener; average of replicates; read-out: Nav1.8 IC50.

One may read the IC50 as the concentration that inhibits the measured activity by half.

T1 sequence (Q14524 whole entry): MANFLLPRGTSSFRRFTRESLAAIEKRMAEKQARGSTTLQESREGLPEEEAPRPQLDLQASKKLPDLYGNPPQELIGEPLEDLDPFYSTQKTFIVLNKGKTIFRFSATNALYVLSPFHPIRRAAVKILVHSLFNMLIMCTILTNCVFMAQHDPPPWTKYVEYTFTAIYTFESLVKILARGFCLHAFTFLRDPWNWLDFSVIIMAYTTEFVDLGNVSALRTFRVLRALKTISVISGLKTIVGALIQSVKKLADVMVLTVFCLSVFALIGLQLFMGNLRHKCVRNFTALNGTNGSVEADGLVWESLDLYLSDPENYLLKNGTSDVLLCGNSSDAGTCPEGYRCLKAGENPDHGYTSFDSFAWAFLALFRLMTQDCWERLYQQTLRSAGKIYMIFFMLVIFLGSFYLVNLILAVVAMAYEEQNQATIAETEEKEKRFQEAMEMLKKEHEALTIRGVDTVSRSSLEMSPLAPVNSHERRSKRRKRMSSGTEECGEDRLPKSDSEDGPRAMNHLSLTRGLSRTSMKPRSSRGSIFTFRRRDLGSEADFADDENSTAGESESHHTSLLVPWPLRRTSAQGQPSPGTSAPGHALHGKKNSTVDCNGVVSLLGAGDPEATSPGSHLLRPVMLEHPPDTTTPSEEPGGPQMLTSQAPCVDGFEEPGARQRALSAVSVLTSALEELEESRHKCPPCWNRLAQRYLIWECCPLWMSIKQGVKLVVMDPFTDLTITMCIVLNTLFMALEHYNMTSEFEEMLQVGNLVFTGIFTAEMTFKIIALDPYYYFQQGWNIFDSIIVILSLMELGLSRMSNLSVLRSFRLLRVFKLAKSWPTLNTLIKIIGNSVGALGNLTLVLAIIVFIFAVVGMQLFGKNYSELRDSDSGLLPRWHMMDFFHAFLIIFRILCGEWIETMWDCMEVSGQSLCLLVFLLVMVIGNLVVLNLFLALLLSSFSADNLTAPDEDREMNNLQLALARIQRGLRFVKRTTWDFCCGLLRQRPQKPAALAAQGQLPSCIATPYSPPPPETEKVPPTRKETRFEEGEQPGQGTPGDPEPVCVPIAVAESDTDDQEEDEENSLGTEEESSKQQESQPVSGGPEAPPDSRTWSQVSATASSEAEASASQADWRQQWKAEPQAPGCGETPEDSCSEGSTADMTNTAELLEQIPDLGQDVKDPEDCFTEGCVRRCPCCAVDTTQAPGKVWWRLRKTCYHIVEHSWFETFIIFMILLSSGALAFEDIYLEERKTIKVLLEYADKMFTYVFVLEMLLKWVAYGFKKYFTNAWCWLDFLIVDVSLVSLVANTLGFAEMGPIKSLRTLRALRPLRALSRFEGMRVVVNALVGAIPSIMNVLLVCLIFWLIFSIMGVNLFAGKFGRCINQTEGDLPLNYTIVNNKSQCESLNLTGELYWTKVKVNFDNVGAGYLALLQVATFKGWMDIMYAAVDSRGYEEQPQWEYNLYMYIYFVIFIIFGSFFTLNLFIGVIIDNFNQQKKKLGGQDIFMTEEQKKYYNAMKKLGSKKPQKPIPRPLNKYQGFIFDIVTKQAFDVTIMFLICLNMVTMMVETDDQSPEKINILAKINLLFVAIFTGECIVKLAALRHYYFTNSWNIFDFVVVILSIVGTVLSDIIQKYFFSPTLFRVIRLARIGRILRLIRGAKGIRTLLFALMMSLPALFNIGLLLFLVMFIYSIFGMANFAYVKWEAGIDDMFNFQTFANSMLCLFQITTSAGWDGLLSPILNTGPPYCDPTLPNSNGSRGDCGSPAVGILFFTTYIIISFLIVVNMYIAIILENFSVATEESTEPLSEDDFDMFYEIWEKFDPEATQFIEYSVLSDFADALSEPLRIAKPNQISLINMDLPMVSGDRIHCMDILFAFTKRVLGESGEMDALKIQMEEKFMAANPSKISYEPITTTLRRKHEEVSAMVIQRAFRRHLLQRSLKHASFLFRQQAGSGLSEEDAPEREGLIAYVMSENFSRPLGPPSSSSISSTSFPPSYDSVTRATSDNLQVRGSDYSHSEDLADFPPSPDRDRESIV

Consider `CC(C)n1nccc1C(=O)Nc1ccc(-c2cc(OC(F)(F)F)ccc2Cl)c(N)n1` [Example 69, N-{6-Amino-5-[2-chloro-5-(trifluoromethoxy)phenyl]pyridin-2-yl}-1-isopropyl-1H-pyrazole-5-carboxamide], for which the IC50 at Human Nav1.5 amounted to 16 µM; in test [1], 3.6 µM; on Human Nav1.8, 16 µM.

Turning to `Cn1nccc1C(=O)Nc1ccc(-c2cc(OC(F)(F)F)ccc2F)c(N)n1` [Example 17, N-{6-Amino-5-[2-fluoro-5-(trifluoromethoxy)phenyl]pyridin-2-yl}-1-methyl-1H-pyrazole-5-carboxamide], the IC50 on Human Nav1.5 came to 19 µM; in test [1], 7.7 µM; on Human Nav1.8, 3.4 µM.

Turning to `COCc1cc(C(=O)Nc2ccc(-c3ccccc3OC(F)(F)F)c(N)n2)on1` [Example 94], the results for the IC50 (at Human Nav1.5; in test [1]; at Human Nav1.8) were 31 µM, 19 µM and above 32 µM, respectively.

For the molecule `Cc1nocc1C(=O)Nc1ccc(-c2ccccc2C(F)(F)F)c(N)n1` [Example 2, N-{6-Amino-5-[2-(trifluoromethyl)phenyl]pyridin-2-yl}-3-methylisoxazole-4-carboxamide], the IC50 is above 32 µM on Human Nav1.5, 30 µM in test [1] and 1.7 µM on Human Nav1.8.

Consider `Cn1nccc1C(=O)Nc1ccc(-c2cc(Cl)ccc2Cl)c(N)n1` [Example 3, N-[6-Amino-5-(2,5-dichlorophenyl)pyridin-2-yl]-1-methyl-1H-pyrazole-5-carboxamide], for which the IC50 on Human Nav1.5 came out at 15 µM; in test [1], 11 µM; at Human Nav1.8 it was 0.9 µM.

As to `Cc1nonc1C(=O)Nc1ccc(-c2cc(F)ccc2Cl)c(N)n1` [Example 47, N-[6-Amino-5-(2-chloro-5-fluorophenyl)pyridin-2-yl]-4-methyl-1,2,5-oxadiazole-3-carboxamide], the IC50 came to 7.4 µM at Human Nav1.5, 6.1 µM in test [1] and 1.4 µM on Human Nav1.8.

Turning to `Nc1nc(NC(=O)c2ccno2)ccc1-c1cc(Cl)cc(Cl)c1Cl` [Example 78, N-[6-Amino-5-(2,3,5-trichlorophenyl)pyridin-2-yl]isoxazole-5-carboxamide], the IC50 on Human Nav1.5 is 14 µM; in test [1], 8.3 µM; at Human Nav1.8 it was 1.4 µM.

For the molecule `COCc1oncc1C(=O)Nc1ccc(-c2cc(F)ccc2Cl)c(N)n1` [Example 92], the IC50 stood at 19 µM on Human Nav1.5, 17 µM in test [1] and 0.57 µM at Human Nav1.8.

For the molecule `CCn1nccc1C(=O)Nc1ccc(-c2ccccc2Cl)c(N)n1` [Example 53, N-[6-Amino-5-(2-chlorophenyl)pyridin-2-yl]-1-ethyl-1H-pyrazole-5-carboxamide], the IC50 came to 22 µM on Human Nav1.5, 15 µM in test [1] and 2.3 µM on Human Nav1.8.

As for `Cc1nocc1C(=O)Nc1ccc(-c2cc(F)ccc2C(F)(F)F)c(N)n1` [Example 39, N-{6-Amino-5-[5-fluoro-2-(trifluoromethyl)phenyl]pyridin-2-yl}-3-methylisoxazole-4-carboxamide], the IC50 at Human Nav1.5 came to 21 µM; in test [1] it was 13 µM; on Human Nav1.8, 0.93 µM.

`Cc1n[nH]cc1C(=O)Nc1ccc(-c2ccccc2OC(F)(F)F)c(N)n1` [Example 108, N-{6-Amino-5-[2-(trifluoromethoxy)phenyl]pyridin-2-yl}-3-methyl-1H-pyrazole-4-carboxamide]: the values for the half-inhibitory concentration (IC50) (at Human Nav1.5; in test [1]; on Human Nav1.8) were above 32 µM, 27 µM and 26 µM, respectively.

Turning to `Cc1nocc1C(=O)Nc1ccc(-c2ccccc2Cl)c(N)n1` [Example 26, N-[6-Amino-5-(2-chlorophenyl)pyridin-2-yl]-3-methylisoxazole-4-carboxamide], the concentration for half-maximal inhibition (IC50) turned out to be 11 µM at Human Nav1.5, 8.5 µM in test [1] and 0.56 µM at Human Nav1.8.

Turning to `COc1cc(Cl)c(Cl)c(-c2ccc(NC(=O)c3cnnn3C)nc2N)c1` [Example 81, N-[6-Amino-5-(2,3-dichloro-5-methoxyphenyl)pyridin-2-yl]-1-methyl-1H-1,2,3-triazole-5-carboxamide], the IC50 at Human Nav1.5 is 2.9 µM; in test [1], 7.5 µM; at Human Nav1.8 it was 1.1 µM.

For `Cc1nocc1C(=O)Nc1ccc(-c2cc(OC(F)(F)F)ccc2F)c(N)n1` [Example 36, N-{6-Amino-5-[2-fluoro-5-(trifluoromethoxy)phenyl]pyridin-2-yl}-3-methylisoxazole-4-carboxamide], the IC50 at Human Nav1.5 turned out to be 6.4 µM; in test [1], 2.2 µM; on Human Nav1.8 it was 1.3 µM.

Turning to `Cn1nccc1C(=O)Nc1ccc(-c2cccc(F)c2Cl)c(N)n1` [Example 13, N-[6-Amino-5-(2-chloro-3-fluorophenyl)pyridin-2-yl]-1-methyl-1H-pyrazole-5-carboxamide], the values for the IC50 (at Human Nav1.5; in test [1]; at Human Nav1.8) were above 32 µM, above 32 µM and 8.8 µM, respectively.

As to `N#Cc1cccc(C(=O)Nc2ccc(-c3ccccc3OC(F)(F)F)c(N)n2)c1` [Example 106, N-{6-Amino-5-[2-(trifluoromethoxy)phenyl]pyridin-2-yl}-3-cyanobenzamide], the IC50 on Human Nav1.5 was 16 µM; in test [1] it was 8.1 µM; at Human Nav1.8 it was 5.3 µM.

In the case of `CCn1nccc1C(=O)Nc1ccc(-c2ccccc2OC(F)(F)F)c(N)n1` [Example 59, N-{6-Amino-5-[2-(trifluoromethoxy)phenyl]pyridin-2-yl}-1-ethyl-1H-pyrazole-5-carboxamide], the IC50 on Human Nav1.5 stood at 31 µM; in test [1], 17 µM; on Human Nav1.8, 3.6 µM.

Take `COc1ccc(Cl)c(-c2ccc(NC(=O)c3ccon3)nc2N)c1` [Example 73, N-[6-Amino-5-(2-chloro-5-methoxyphenyl)pyridin-2-yl]isoxazole-3-carboxamide]: the IC50 at Human Nav1.5 was above 32 µM; in test [1] it was 18 µM; on Human Nav1.8 it was 4.7 µM.

Regarding `COc1ccc(Cl)c(-c2ccc(NC(=O)c3conc3C)nc2N)c1` [Example 24, N-[6-Amino-5-(2-chloro-5-methoxyphenyl)pyridin-2-yl]-3-methylisoxazole-4-carboxamide], the IC50 came out at 8.5 µM on Human Nav1.5, 11 µM in test [1] and 0.44 µM at Human Nav1.8.

For `Cc1nocc1C(=O)Nc1ccc(-c2cc(F)ccc2F)c(N)n1` [Example 34, N-[6-Amino-5-(2,5-difluorophenyl)pyridin-2-yl]-3-methylisoxazole-4-carboxamide], the IC50 worked out at 16 µM on Human Nav1.5, 19 µM in test [1] and 3.1 µM at Human Nav1.8.

In the case of `Cc1nonc1C(=O)Nc1ccc(-c2ccccc2OC(F)(F)F)c(N)n1` [Example 50, N-{6-Amino-5-[2-(trifluoromethoxy)phenyl]pyridin-2-yl}-4-methyl-1,2,5-oxadiazole-3-carboxamide], the IC50 on Human Nav1.5 was determined as 19 µM; in test [1] it was 9.8 µM; on Human Nav1.8, 3.1 µM.

As for `COc1ccc(Cl)c(-c2ccc(NC(=O)c3conc3C(F)(F)F)nc2N)c1` [Example 113], the half-maximal inhibitory concentration (IC50) at Human Nav1.5 is 14 µM; in test [1], 8.7 µM; on Human Nav1.8 it was 3.8 µM.

For the molecule `COCc1nocc1C(=O)Nc1ccc(-c2ccccc2Cl)c(N)n1` [Example 89, N-[6-Amino-5-(2-chlorophenyl)pyridin-2-yl]-3-(methoxymethyl)isoxazole-4-carboxamide], the IC50 at Human Nav1.5 is above 32 µM; in test [1] it was above 32 µM; on Human Nav1.8, 4.4 µM.

With `Cn1nncc1C(=O)Nc1ccc(-c2cc(Cl)ccc2Cl)c(N)n1` [Example 80, N-[6-Amino-5-(2,5-dichlorophenyl)pyridin-2-yl]-1-methyl-1H-1,2,3-triazole-5-carboxamide], the IC50 was found to be 15 µM on Human Nav1.5, 15 µM in test [1] and 3.4 µM at Human Nav1.8.

In the case of `Cn1nncc1C(=O)Nc1ccc(-c2cc(Cl)cc(Cl)c2Cl)c(N)n1` [Example 84, N-[6-Amino-5-(2,3,5-trichlorophenyl)pyridin-2-yl]-1-methyl-1H-1,2,3-triazole-5-carboxamide], the figures for the IC50 (at Human Nav1.5; in test [1]; at Human Nav1.8) were 5.3 µM, 6.5 µM and 2.4 µM, respectively.

For `Nc1nc(NC(=O)c2conc2C(F)(F)F)ccc1-c1ccccc1Cl` [Example 111], the IC50 on Human Nav1.5 came to 16 µM; in test [1] it was 6.1 µM; at Human Nav1.8 it was 0.51 µM.

Regarding `Cc1nocc1C(=O)Nc1ccc(-c2cc(Cl)ccc2OC(F)(F)F)c(N)n1` [Example 32, N-{6-Amino-5-[5-chloro-2-(trifluoromethoxy)phenyl]pyridin-2-yl}-3-methylisoxazole-4-carboxamide], the IC50 at Human Nav1.5 turned out to be 7.8 µM; in test [1], 2.6 µM; on Human Nav1.8 it was 0.64 µM.

For the molecule `Cn1nccc1C(=O)Nc1ccc(-c2ccc(OC(F)(F)F)cc2)c(N)n1` [Example 120], the IC50 on Human Nav1.5 worked out at 10 µM; in test [1], 5.2 µM; on Human Nav1.8, 12 µM.

Turning to `Cc1nocc1C(=O)Nc1ccc(-c2cccc3c2OCCO3)c(N)n1` [Example 35, N-[6-Amino-5-(2,3-dihydro-1,4-benzodioxin-5-yl)pyridin-2-yl]-3-methylisoxazole-4-carboxamide], the results for the IC50 (on Human Nav1.5; in test [1]; at Human Nav1.8) were above 32 µM, above 32 µM and 11 µM, respectively.

Regarding `Cn1nccc1C(=O)Nc1ccc(-c2ccc(OCC(F)(F)F)cc2)c(N)n1` [Example 122], the results for the IC50 (on Human Nav1.5; in test [1]; on Human Nav1.8) were 14 µM, 12 µM and 19 µM, respectively.

In the case of `Cc1nocc1C(=O)Nc1ccc(-c2cc(OC(F)(F)F)ccc2Cl)c(N)n1` [Example 37, N-{6-Amino-5-[2-chloro-5-(trifluoromethoxy)phenyl]pyridin-2-yl}-3-methylisoxazole-4-carboxamide], the concentration for half-maximal inhibition (IC50) on Human Nav1.5 stood at 3.6 µM; in test [1], 1.2 µM; at Human Nav1.8, 0.44 µM.

(Values after patent US8134007B2, “Pyridine derivatives” (Pfizer Inc., priority 2007, dated 2012).)
